# Assay results published in patent US5135910A, “Nisin compositions for use as enhanced, broad range bactericides” (The Public Health Research Institute of the City of New York, priority 1991, dated 1992).
# Columns and labels:
# E. coli = assay: bactericidal activity, percent bacterial survival, E. coli suspension; format: cell-based, Escherichia coli; settings: for Percentage E. coli Survival at 2 hours: 20 mM Tris pH 8.0, 37° C.
# Procedure: (§1) All tests in the following examples were performed at 37° C. The efficacy of the enhanced broad range bactericides was determined by assaying bactericidal activity as measured by the percent bacterial survival after treatment with the bactericide. Generally, after incubation of a 10^7 cell per ml suspension of target species with the novel bactericide for specified lengths of time, bacteria were collected by centrifugation for 2 minutes. […] Surviving bacteria were determined by scoring colony forming units (CFU) after incubation for 24-48 hours at 37° C.
# The effects of the bactericide were measured as a function of percentage bacteria survival after 2 hours.
# Incubations were performed in 20 mM Tris, pH 7.0 at 37° C.
# Listeria monocytogenes [1] = assay: bactericidal activity towards Listeria monocytogenes in milk; format: cell-based
# Procedure: (§2) All tests in the following examples were performed at 37° C. The efficacy of the enhanced broad range bactericides was determined by assaying bactericidal activity as measured by the percent bacterial survival after treatment with the bactericide. Generally, after incubation of a 10^7 cell per ml suspension of target species with the novel bactericide for specified lengths of time, bacteria were collected by centrifugation for 2 minutes. […] Surviving bacteria were determined by scoring colony forming units (CFU) after incubation for 24-48 hours at 37° C. An effective bactericide according to this invention is one which allows less than 0.1% of the initial viable count of the bacteria to survive.
# An example of where the application of nisin is limited by its available activity is illustrated by the data in Table 15B.
# (§3) Incubations were in milk at 37° C.
# S. typhimurium = assay: bactericidal activity, percent bacterial survival, S. typhimurium suspension; format: cell-based, Salmonella typhimurium; settings: for Percentage S. typhimurium Survival at 3 hours: 20 mM Tris pH 8.0, 37° C.
# Procedure: as §1
# The control (Test #1) is identical to the control of Example 1 (Table 1).
# K. pneumoniae = assay: bactericidal activity, percent bacterial survival, K. pneumoniae suspension; format: cell-based, Klebsiella pneumoniae; settings: 20 mM Tris pH 8.0, 37° C.
# Procedure: as §1
# The effect was measured as a function of percentage bacterial survival after 2 hours.
# Coryneform bacteria = assay: bactericidal activity, percent survival, axillary Coryneform bacteria; format: cell-based; settings: 20 mM Tris-HCl pH 8.0
# Procedure: as §2
# (§4) Incubations were performed in 20 mM TrisHCl, pH 8.0 at 37° C.
# Streptococcus mutans [2] = assay: rapid bactericidal activity towards Streptococcus mutans in the presence of divalent cation, 10% fetal calf serum; format: cell-based; settings: nisin 3, no EDTA, CaCl3 0 mM
# Procedure: (§6) All tests in the following examples were performed at 37° C. The efficacy of the enhanced broad range bactericides was determined by assaying bactericidal activity as measured by the percent bacterial survival after treatment with the bactericide. Generally, after incubation of a 10^7 cell per ml suspension of target species with the novel bactericide for specified lengths of time, bacteria were collected by centrifugation for 2 minutes. The bacterial pellet was washed free of the bactericide with a rescue buffer, termed herein Phage buffer (50 mM Tris-HCl buffer pH 7.8, 1 mM MgSO4, 4 mM CaCl2, 0.1 M Nacl, and 0.1% gelatin), resuspended and serially diluted into Phage buffer, and 100 μl of the suspended bacteria were spread on nutrient agar plates. Surviving bacteria were determined by scoring colony forming units (CFU) after incubation for 24-48 hours at 37° C.
# Incubations performed in 10% Fetal Calf Serum at 37° C.
# Listeria monocytogenes [3] = assay: bactericidal activity, percent survival, Listeria monocytogenes in Tris buffer; format: cell-based; settings: 20 mM Tris-HCl pH 8.0
# Procedure: as §2, §4
# [4] = tested on: S. typhimurium on chicken muscle; assay: bactericidal activity towards S. typhimurium on chicken muscle (unadhered cells); format: cell-based, Salmonella typhimurium
# Procedure: as §2
# Incubations were performed in either 50 mM sodium acetate, pH 5.0, or 20 mM […], pH 8.0 at 37° C.
# Cubes of chicken muscle were cleansed with sodium hypochlorite and povidone iodine prior to use. To inoculate the tissue, the cubes of chicken muscle were dipped into a 10^8 cells/ml suspension of S. typhimurium in 20 mM Tris HCl, pH 8.0. Excess moisture was removed from dipped cubes by tapping. The chicken samples were placed into sufficient buffer containing the nisin composition to cover the tissue and incubated for 2 hours at 37° C. after which the tissue was removed to sufficient Phage buffer to cover the tissue. The bacteria remaining in the test solution were collected by centrifugation, washed with Phage buffer, and combined with bacteria washed from the tissue by Phage buffer. The combined samples (termed "unadhered" cells) were serially diluted and 100μl aliquots were plated for determination of surviving bacteria.
# (§5) Cubes of chicken muscle were cleansed with sodium hypochlorite and povidone iodine prior to use. To inoculate the tissue, the cubes of chicken muscle were dipped into a 10^8 cells/ml suspension of S. typhimurium in 20 mM Tris HCl, pH 8.0. Excess moisture was removed from dipped cubes by tapping. The tissue was placed into sufficient buffer containing the nisin compositions to cover the tissue, and incubated for 2 hours at 37° C. after which the tissue was removed to sufficient Phage buffer to cover the tissue. The bacteria remaining in the test solution were collected by centrifugation, washed with Phage buffer, and combined with bacteria washed from the tissue by Phage buffer. The combined samples (termed "unadhered" cells) were serially diluted and 100 μl aliquots were plated for determination of surviving bacteria.
# as §5, with “cleaned” for “cleansed”, “with” for “with sodium”, “50” for “20”, “sodium acetate buffer,” for “Tris HCl,”, “5.0.” for “8.0.”, “containing” for “containing the”
# Streptococcus agalactiae = assay: bactericidal activity towards Streptococcus agalactiae in milk; format: cell-based
# Procedure: as §2
# However, the combination of the two agents, 0.1% monolaurin and nisin 0.2 μg/ml, is extremely potent towards S. agalactiae. […] Thus, when the application of nisin is limited by its available activity, a bactericide comprising nisin with a surfactant can be expected to be more useful.
# as §3
# Staphyloccus aureus = assay: bactericidal activity, percent survival, Staphylococcus aureus; format: cell-based
# Procedure: as §2
# Incubations were performed in 50 mM sodium acetate buffer, pH 5.0 or 20 m
# TrisHCl buffer, pH 8.0 at 37° C.
# Streptococcus mutans [5] = assay: bactericidal activity, percent survival, Streptococcus mutans in Tris buffer; format: cell-based; settings: for % Survival (S. mutans kinetics): nisin 0, 1.0 mM EDTA, Tris-HCl pH 7.3
# Procedure: as §6
# The suspensions were incubated for various times ranging from 0.5 to 60 minutes with the bactericides. The bactericidal efficacy of the bactericides was estimated by determining the percent survival of bacteria.
# Incubations were performed in 20 mM TrisHCl, pH 7.3 at 37° C.
compound,measurement,setting,value
nisin,Percentage E. coli Survival at 2 hours,"E. coli; nisin 30 μg/ml, EDTA 0, Triton X-100 0",27%
same,Percentage E. coli Survival at 2 hours,"E. coli; nisin 100 μg/ml, EDTA 0, Triton X-100 0",25%
same,Percentage E. coli Survival at 2 hours,"E. coli; nisin 300 μg/ml, EDTA 0, Triton X-100 0",8.5%
same,% Survival 2 hr (L. monocytogenes),"Listeria monocytogenes [1]; nisin 100 μg/ml, monooleate 0, 37° C.",0.56%
same,% Survival at 2 hours (S. typhimurium),"S. typhimurium; Table 8 test 1: nisin 10 μg/ml, EDTA 0, BSA 0",51.3%
same,% Survival at 2 hours (S. typhimurium),"S. typhimurium; Table 8 test 1: nisin 100 μg/ml, EDTA 0, BSA 0",1.6%
same,Percentage S. typhimurium Survival at 3 hours,"S. typhimurium; nisin 10 μg/ml, EDTA 0 mM",51.3%
same,Percentage S. typhimurium Survival at 3 hours,"S. typhimurium; nisin 50 μg/ml, EDTA 0 mM",7.0%
same,% Survival at 2 hours (S. typhimurium),"S. typhimurium; nisin 100 μg/ml, EDTA 0, 20 mM Tris pH 8.0 (Table 6)",4%
same,% Survival at 2 hours (S. typhimurium),"S. typhimurium; nisin 100 μg/ml, EDTA 0, 50 mM sodium acetate pH 5.0",0.6%
same,Percentage S. typhimurium Survival at 3 hours,"S. typhimurium; nisin 100 μg/ml, EDTA 0 mM",1.6%
same,% Survival at 2 hours (K. pneumoniae),"K. pneumoniae; nisin 100 μg/ml, EDTA 0",50%
same,% Survival at 2 hours (K. pneumoniae),"K. pneumoniae; nisin 300 μg/ml, EDTA 0",38%
same,% Survival 2 hr (Coryneform bacteria),"Coryneform bacteria; nisin 3 μg/ml, EDTA 0",0.22%
same,% survival at 1 min. (S. mutans),Streptococcus mutans [2],2.9%
same,% Survival after 2 hr (L. monocytogenes),"Listeria monocytogenes [3]; nisin 3.0 μg/ml, EDTA 0",0.71%
same,"% Survival at 2 hours, unadhered cells","[4]; nisin 300 μg/ml, EDTA 0, pH 5.0",0.1%
same,"% Survival at 2 hours, unadhered cells","[4]; nisin 300 μg/ml, EDTA 0, pH 8.0",7.5%
same,"% Survival at 2 hours, unadhered cells","[4]; nisin 300 μg/ml, EDTA 0, pH 8.0, contains 1% BSA",0.02%
same,% survival at 2 h (S. agalactiae),"Streptococcus agalactiae; nisin 0.02 μg/ml, monolaurin 0, 37° C.",100%
same,% survival at 2 h (S. agalactiae),"Streptococcus agalactiae; nisin 0.2 μg/ml, monolaurin 0, 37° C.",2.2%
same,bactericidal activity towards Streptococcus agalactiae,Streptococcus agalactiae; nisin at concentrations up to 0.2 μg/ml,does not exhibit significant bactericidal activity
same,% Survival 2 hr (S. aureus),"Staphyloccus aureus; nisin 3.0 μg/ml, EDTA 0, pH 5.0",0.6%
same,% Survival 2 hr (S. aureus),"Staphyloccus aureus; nisin 3.0 μg/ml, EDTA 0, pH 8.0",7.4%
same,% Survival after 2 hr (S. mutans),"Streptococcus mutans [5]; nisin 0.1 μg/ml, EDTA 0, 20 mM Tris-HCl pH 8.0",4.3%
O=C([O-])CN(CCN(CC(=O)[O-])CC(=O)O)CC(=O)O.[Na+].[Na+] [EDTA],% survival at 1 min (E. coli),"E. coli; nisin 0, EDTA 1.0 mM, 20 mM Tris pH 7.0",100%
same,% Survival at 2 hours (S. typhimurium),"S. typhimurium; nisin 0, EDTA 1.0 mM, BSA 1.0%, 20 mM Tris pH 8.0",63%
same,% Survival at 2 hours (S. typhimurium),"S. typhimurium; nisin 0, EDTA 2.0 mM, 20 mM Tris pH 8.0",8.7%
same,% Survival at 2 hours (S. typhimurium),"S. typhimurium; nisin 0, EDTA 2.0 mM, 50 mM sodium acetate pH 5.0",38.7%
same,% Survival at 2 hours (S. typhimurium),"S. typhimurium; nisin 0, EDTA 10 mM, 20 mM Tris pH 8.0",14%
same,% Survival at 2 hours (S. typhimurium),"S. typhimurium; nisin 0, EDTA 10 mM, 50 mM sodium acetate pH 5.0",15.2%
same,Percentage S. typhimurium Survival at 3 hours,"S. typhimurium; nisin 0, EDTA 20 mM",2.5%
same,% Survival at 2 hours (S. typhimurium),"S. typhimurium; nisin 0, EDTA 50 mM, 20 mM Tris pH 8.0",11.4%
same,% Survival at 2 hours (S. typhimurium),"S. typhimurium; nisin 0, EDTA 50 mM, 50 mM sodium acetate pH 5.0",3.5%
same,% Survival at 2 hours (S. typhimurium),"S. typhimurium; nisin 0, EDTA 100 mM, 20 mM Tris pH 8.0",45%
same,% Survival at 2 hours (K. pneumoniae),"K. pneumoniae; nisin 0, EDTA 20 mM",22%
same,% Survival 2 hr (Coryneform bacteria),"Coryneform bacteria; nisin 0, EDTA 0.3 mM",4.6%
same,% Survival 2 hr (Coryneform bacteria),"Coryneform bacteria; nisin 0, EDTA 1.0 mM",3.6%
same,% Survival 2 hr (Coryneform bacteria),"Coryneform bacteria; nisin 0, EDTA 3.0 mM",8%
same,% Survival 2 hr (Coryneform bacteria),"Coryneform bacteria; nisin 0, EDTA 10 mM",36%
same,% Survival after 2 hr (L. monocytogenes),"Listeria monocytogenes [3]; nisin 0, EDTA 1.0 mM",84%
same,% Survival at 2 hours,"[4]; nisin 0, EDTA 1.0 mM, BSA 1.0%, pH 8.0",27%
same,"% Survival at 2 hours, unadhered cells","[4]; nisin 0, EDTA 10 mM, pH 5.0",6.4%
same,"% Survival at 2 hours, unadhered cells","[4]; nisin 0, EDTA 10 mM, pH 8.0",5.2%
same,% Survival 2 hr (S. aureus),"Staphyloccus aureus; nisin 0, EDTA 0.3 mM, pH 8.0",100%
same,% Survival 2 hr (S. aureus),"Staphyloccus aureus; nisin 0, EDTA 1.0 mM, pH 8.0",81%
same,% Survival 2 hr (S. aureus),"Staphyloccus aureus; nisin 0, EDTA 3.0 mM, pH 5.0",100%
same,% Survival 2 hr (S. aureus),"Staphyloccus aureus; nisin 0, EDTA 3.0 mM, pH 8.0",100%
same,% Survival 2 hr (S. aureus),"Staphyloccus aureus; nisin 0, EDTA 10 mM, pH 8.0",100%
same,% Survival 2 hr (S. aureus),"Staphyloccus aureus; nisin 0, EDTA 30 mM, pH 8.0",100%
same,% Survival (S. mutans kinetics),Streptococcus mutans [5]; incubation 3 min,100%
same,% Survival (S. mutans kinetics),Streptococcus mutans [5]; incubation 60 min,100%
monooleate,bactericidal activity towards L. monocytogenes,Listeria monocytogenes [1]; monooleate by itself,no bactericidal activity
same,% Survival 2 hr (L. monocytogenes),"Listeria monocytogenes [1]; nisin 0, monooleate 0.1%, 37° C.",67%
same,% Survival 2 hr (L. monocytogenes),"Listeria monocytogenes [1]; nisin 0, monooleate 1.0%, 37° C.",63%
Triton X-100,Percentage E. coli Survival at 2 hours,"E. coli; nisin 0, EDTA 0, Triton X-100 1.0%",100%
same,bactericidal activity towards E. coli,"E. coli; tests #3 and #4, Table 4",no significant bactericidal activity
"CCCCCCCCCCCC(=O)OCC(O)CO (stereo not drawn) [Monolaurin, monolaurin]",bactericidal activity towards Streptococcus agalactiae,Streptococcus agalactiae; monolaurin at concentrations up to 0.1%,little significant bactericidal activity
same,% survival at 2 h (S. agalactiae),"Streptococcus agalactiae; nisin 0, monolaurin 0.01%, 37° C.",100%
same,% survival at 2 h (S. agalactiae),"Streptococcus agalactiae; nisin 0, monolaurin 0.1%, 37° C.",4.5%
